Test results reported in publication PMC11729640, “Synthesis and evaluation of 6-arylaminobenzamides as positron emission tomography imaging ligands for the sphingosine-1-phosphate-5 receptor” (RSC Medicinal Chemistry, 2025).

How the values were obtained:
rat brain = experiment: Pilot PET in vivo imaging in naïve rats; design: species or system Sprague–Dawley rats; conditions: intravenous bolus, n = 3
Method: Following successful preparation of [^18F]TEFM78, PET imaging with rodents was next conducted. On intravenous bolus administration of [^18F]TEFM78, there was rapid uptake of the radiotracer into the rat brain (Fig. 3a), followed by clearance within 20 minutes of the scan starting (Fig. 3b). […] The biodistribution and kinetics of the spinal cord were different from the brain with a lower peak radiotracer uptake but slower clearance (Fig. 3b). […] Typically, low free fraction of compounds can limit brain penetration. However, as shown in the PET images presented in Fig. 3, despite low free fraction, brain penetration of [^18F]TEFM78 is successfully achieved. […]
Fig. 3 Brain and spinal cord kinetics of [^18F]TEFM78 in naïve rats. […] Data expressed as SUV and presented as mean ± SEM, n = 3.
All animal procedures were performed in accordance with the guidelines for care and use of laboratory animals of Edinburgh University and experiments were approved by the Home Office under the Animals (Scientific Procedures) Act 1986, UK. […] Once the PET scans were reconstructed, data was analysed using PMOD image analysis software (PMOD Technologies LLC, Zürich, Switzerland). […] Time activity curves (TACs) were created for each region and PET data expressed as standard uptake value (SUV), calculated as radioactive concentration in the VOI divided by the injected dose and animal's weight.

[1] = Stability of radiotracer by radio-HPLC and radio-TLC; format: physicochemical
Source text: On identification of TEFM78 as the lead compound, a synthetic route to access a suitable precursor for late stage radiofluorination was developed (Scheme 3). Our approach focused on the synthesis of a 6-arylaminobenzamide that could undergo late-stage functionalisation at the 4′-position for subsequent radiofluorination. Nucleophilic aromatic substitution of 9b with 2,6-dimethylaniline (18), followed by Ullmann coupling and amidation gave benzamide 21 in 81% yield over the three steps. Activation of the electron-rich aniline ring was achieved using silver(I) triflimide-catalysed iodination.[17] Following optimisation (solvent and reaction time), this gave 22 in 54% yield. Subsequent Pd(0)-catalysed stannylation gave trimethyltin precursor 23 in 84% yield. The radiosynthesis of [^18F]TEFM78 was then performed using a TRACERlab FXFN automated synthesiser. No-carrier-added [^18F]fluoride from the cyclotron was trapped on a carbonate-pre-conditioned quaternary methyl ammonium (QMA) cartridge, eluted into the reaction vessel and then azeotropically dried. […]
Analytical HPLC was carried out on a Thermo Dionex Ulimate system 3000 equipped with a Berthold FlowStar LB 513 radio flow detector and a DAD-3000 UV detector. […] The nonradioactive standards were detected using a UV wavelength of 254 nm.

COc1c(C)ccc(Nc2c(C)cc([18F])cc2C)c1C(N)=O [[^18F]TEFM78]
peak standard uptake value (SUV) in the brain (rat brain): 3 g/mL | radiochemical purity (RCP) ten hours after production (stability) [1]: > 99%
